The values below come from US20100267775A1, “OXADIAZOLIDINEDIONE COMPOUND” (priority 2007, published 2010).

Assay [1] deals with T1, human GPR40 (Homo sapiens, UniProt O14842, R211H).
T1 construct: expressed in transfected cells; host or cells: CHO dhfr- cells stably transfected with plasmid pEF-BOS-dhfr-GPR40
As to the kind of experiment: Measurement of GPR40 agonistic activity (intracellular calcium, FLIPR, CHO cell line expressing human GPR40). As to conditions: change in fluorescence intensity one minute after measurement. It is filed as cell-based. An excerpt:
Test Method 1: Measurement of GPR40 Agonistic Activity i) Cloning of Human GPR40
In accordance with procedures as described below, the full-length sequence of GPR40 was obtained by a polymerase chain reaction (PCR) to set human genomic DNA (Clontech) as a template.
Oligonucleotide which consists of a base sequence represented by SEQ ID NO. 1 was used as a forward primer, and oligonucleotide which consists of a base sequence represented by SEQ ID NO. 2 was used as a reverse primer. To each 5′ terminus of the forward primer and the reverse primer described above, a base sequence including the XbaI recognition site is attached. In the PCR, using Taq DNA polymerase (Ex Taq DNA polymerase; TAKARA BIO INC.), a cycle consisting of 94° C. (15 sec)/55° C. (30 sec)/72° C. (1 min) was repeated 30 times in the presence of 5% DMSO. As a result, the DNA fragment of about 0.9 kbp was amplified. This DNA fragment was digested with XbaI, followed by inserting into the XbaI site of plasmid pEF-BOS-dhfr (Nucleic Acids Research, 18, 5322, 1990) to obtain plasmid pEF-BOS-dhfr-GPR40.
The base sequence of GPR40 gene in plasmid pEF-BOS-dhfr-GPR40 was decided by a dideoxy terminator method using a DNA sequencer (ABI377 DNA Sequencer; Applied Biosystems). The base sequence of GPR40 gene was the same with the base sequence represented by SEQ ID NO. 3. The base sequence represented by SEQ ID NO. […] 4 […]
ii) Preparation of GPR40 Stable Expression Cell
A CHO dhfr cell (CHO cell deleting a dihydrofolate reductase (dhfr) gene) was used as a cell in which GPR 40 protein was expressed. In addition, the plasmid pEF-BOS-dhfr-GPR40 obtained in the above i) was used as an expressing plasmid to express GPR40 protein. To a 6 well plate (Asahi Techno Glass Corp.), the CHO dhfr cells were seeded to become 80 to 90% confluent in an aMEM medium having 10% fetal calf serum (FCS), and cultivated overnight. Then, 2 μg of plasmid pEF-BOS-dhfr-GPR40 per well was transferred generetically thereto using a transfection reagent (Lipofectamine 2000; Invitrogen Corporation). After cultivating for 24 hours subsequent to the gene transfer, the cell were diluted and reseeded. On this occasion, the αMEM medium having 10% FCS was changed for an αMEM medium having 10% FCS and no nucleic acid. After 20 days cultivation, formed cell colonies were collected respectively and cultivated, thereby obtaining CHO cells stably expressing GPR40. Among these, cells high-reactive to an oleic acid and a linoleic acid which were intrinsic ligands were selected. […]
iii) Measurement of GPR40 Agonistic Activity
The GPR40 agonistic activity was measured with fluctuation of the intracellular calcium concentration as an index by FLIPR (registered trademark, Molecular Devices Corporation). Hereinafter, test methods will be described.
A CHO cell line expressing human GPR40 was seeded with 6×10^3 per well to a 384-well black plate (Becton, Dickinson and Company), and cultivated in a CO2 incubator overnight. For a luminescent pigment, a Calcium-3 assay kit (Molecular Devices Corporation) was used, and dissolved in 10 ml of a HBSS-HEPES buffer (PH7.4, 1×HBSS, 20 mM HEPES, Invitrogen Corporation) for a bottle. 35.68 mg of probenecid (Sigma) was dissolved in 250 μl of 1M NaOH, and then 250 μl of a HBSS-HEPES buffer was added to blend. 16 ml of a HBSS-HEPES buffer, 640 μl of the luminescent pigment and 32 μl of probenecid were added to blend for a solution of the luminescent pigment per plate. The medium of the plate was removed, 40 μl of the solution of the luminescent pigment per well was dispensed, followed by incubating at room temperature for 2 hours. A compound to be inspected was dissolved in DMSO, and diluted with a HBSS-HEPES buffer. A reaction was initiated by 10 μl of dispensation, the fluctuation of the intracellular calcium concentration was measured by FLIPR. An EC50 value of the compound to be inspected was calculated from the dose-response curve of change in fluorescence intensity one minute after measurement.
(Calcium assays in cells follow changes in intracellular calcium, usually with a dye or a luminescent sensor.)

Assay [2] has as its system normal mice. Briefly: Single oral glucose tolerance test on normal mice. It is filed as in vivo. As to conditions: Mus musculus; for inhibition in vivo at 10 mg/kg: 0.5 h, read-out: Reduction rate of blood glucose level (%); for minimal effective dose: read-out: MED. Here is the method:
Test Method 3: Single Oral Glucose Tolerance Test on Normal Mice
The anti-hyperglycemic action after glycemic load of the compound to be inspected was examined using normal mice. Hereinafter, the test method will be described.
Male ICR mice which was preparedly reared for one week (6-week-old) was fasted overnight, and used as an animal to be inspected. A compound to be inspected was 0.5% methylcellulose suspension, and the suspension was orally administered 30 minutes before the glucose (2 g/kg) load. With regard to some compounds to be inspected, prior blood drawing was performed (0 min value), and blood glucose levels were measured at 5, 15, 30, 60 and 120 minutes later glucose load when the compound to be inspected was orally administered. A control group was given 0.5% methylcellulose. The evaluation was carried out in the following manner. (Evaluation 1) The reduction rate of blood glucose levels after glucose loading (%) with respect to the control group was calculated at a point of glucose load which is 30 minutes after the oral administration of 10 mg/kg of the compound to be inspected. […] Ex represents example compound numbers.
(Evaluation 2) The reduction rate of blood glucose levels after glucose loading (%) with respect to the control group was calculated at a point of glucose load which is 30 minutes after the oral administration of 10, 3, 1, 0.3 or 0.1 mg/kg of the compound to be inspected. […] Ex represents example compound numbers. In addition, MED describing “below” in Table 3 means that a test was not carried out due to less than dose described.
The area under the blood concentration-time curve (AUC) of blood glucose levels for 0 to 120 minute(s) was calculated from the blood glucose levels before the blood drawing, and the blood glucose levels at 5, 15, 30, 60, and 120 minutes after the glucose load when 30, 10, 3, 1 or 0.3 mg/kg of the compound to be inspected was orally administered.

T1 sequence (O14842 whole entry R211H): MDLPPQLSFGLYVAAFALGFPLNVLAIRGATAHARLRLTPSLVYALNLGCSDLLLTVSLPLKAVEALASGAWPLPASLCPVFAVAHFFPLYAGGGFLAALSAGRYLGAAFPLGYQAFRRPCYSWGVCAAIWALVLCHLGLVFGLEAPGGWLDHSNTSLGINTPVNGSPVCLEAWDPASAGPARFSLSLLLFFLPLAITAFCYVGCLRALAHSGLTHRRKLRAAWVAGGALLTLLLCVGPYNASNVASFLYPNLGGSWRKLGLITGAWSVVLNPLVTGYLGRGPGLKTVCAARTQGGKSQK

In the case of `Cc1cc(OCC[C@@H](O)CO)cc(C)c1-c1cccc(CNc2ccc(Cn3oc(=O)[n-]c3=O)cc2)c1C.[Na+]` [Example 101], the concentration for a half-maximal effect (EC50) in assay [1] was 230 nM. Further, in assay [2], the inhibition in vivo at 10 mg/kg is 39% and the minimal effective dose was 3 mg/kg.
Consider `Cc1cc(OCC[C@H](O)CO)cc(C)c1-c1cccc(CNc2ccc(Cn3oc(=O)[n-]c3=O)cc2)c1C.[Na+]` [Example 102], for which, in assay [1], the EC50 stood at 230 nM. In addition, in assay [2], the inhibition in vivo at 10 mg/kg stood at 48% and the minimal effective dose was found to be 10 mg/kg.
The corresponding values for `CCC(=O)NCCCOc1cc(C)c(-c2cccc(COc3ccc(Cn4oc(=O)[n-]c4=O)cc3)c2C)c(C)c1.[Na+]` [Example 119] are 810 nM, 26% and 3 mg/kg.

Broadly, the EC50 is the concentration giving half of the maximal effect.
